Results from PMC7247349, “Reactions of Plasmodium falciparum Ferredoxin:NADP^+ Oxidoreductase with Redox Cycling Xenobiotics: A Mechanistic Study” (International Journal of Molecular Sciences, 2020).

Assays:
[1] = target: T1, Ferredoxin:NADP^+ oxidoreductase (PfFNR) (Plasmodium falciparum, UniProt C6KT68); assay: steady-state kinetics; competitive inhibition versus AcPyP+ in transhydrogenase reaction; stopped-flow FAD reduction; type: biochemical
T1 construct: gene FNR; recombinant PfFNR
Excerpt: steady-state kinetics; competitive inhibition versus AcPyP+ in transhydrogenase reaction; stopped-flow FAD reduction on Ferredoxin:NADP^+ oxidoreductase (PfFNR) | NADPH acts as a competitive inhibitor to AcPyP^+, occupying the pyridine nucleotide binding site of the reduced enzyme form

[2] = target: T1, Ferredoxin:NADP^+ oxidoreductase (PfFNR); assay: steady-state product inhibition of juglone reductase reaction; type: biochemical

T1 sequence (C6KT68 56-371): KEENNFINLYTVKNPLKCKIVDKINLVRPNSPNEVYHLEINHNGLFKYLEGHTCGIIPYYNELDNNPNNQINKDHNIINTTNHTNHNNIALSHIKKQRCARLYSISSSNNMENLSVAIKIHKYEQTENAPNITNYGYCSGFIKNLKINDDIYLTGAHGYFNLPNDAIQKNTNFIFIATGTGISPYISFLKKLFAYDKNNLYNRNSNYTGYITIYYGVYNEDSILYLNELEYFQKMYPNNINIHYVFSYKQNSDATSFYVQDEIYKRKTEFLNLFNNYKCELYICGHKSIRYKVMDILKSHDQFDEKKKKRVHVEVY

Compound	Ki [1] [µM]	Ki [2] [µM]
NC(=O)C1=CN([C@@H]2O[C@H](COP(=O)(O)OP(=O)(O)OC[C@H]3O[C@@H](n4cnc5c(N)ncnc54)[C@H](OP(=O)(O)O)[C@@H]3O)[C@@H](O)[C@H]2O)C=CC1 [NADPH]	140 ± 20	
NC(=O)c1ccc[n+]([C@@H]2O[C@H](COP(=O)([O-])OP(=O)(O)OC[C@H]3O[C@@H](n4cnc5c(N)ncnc54)[C@H](OP(=O)(O)O)[C@@H]3O)[C@@H](O)[C@H]2O)c1 [NADP^+]		1420 ± 130
